We go through eleven compounds from patent US20120077779A1, “Inhibitors of Fibroblast Activation Protein Alpha” (Trustees of Tufts College, priority 2005, published 2012).

The target in one experiment is T1, FAP (Homo sapiens, UniProt Q12884).
T1 sequence (Q12884 1-760): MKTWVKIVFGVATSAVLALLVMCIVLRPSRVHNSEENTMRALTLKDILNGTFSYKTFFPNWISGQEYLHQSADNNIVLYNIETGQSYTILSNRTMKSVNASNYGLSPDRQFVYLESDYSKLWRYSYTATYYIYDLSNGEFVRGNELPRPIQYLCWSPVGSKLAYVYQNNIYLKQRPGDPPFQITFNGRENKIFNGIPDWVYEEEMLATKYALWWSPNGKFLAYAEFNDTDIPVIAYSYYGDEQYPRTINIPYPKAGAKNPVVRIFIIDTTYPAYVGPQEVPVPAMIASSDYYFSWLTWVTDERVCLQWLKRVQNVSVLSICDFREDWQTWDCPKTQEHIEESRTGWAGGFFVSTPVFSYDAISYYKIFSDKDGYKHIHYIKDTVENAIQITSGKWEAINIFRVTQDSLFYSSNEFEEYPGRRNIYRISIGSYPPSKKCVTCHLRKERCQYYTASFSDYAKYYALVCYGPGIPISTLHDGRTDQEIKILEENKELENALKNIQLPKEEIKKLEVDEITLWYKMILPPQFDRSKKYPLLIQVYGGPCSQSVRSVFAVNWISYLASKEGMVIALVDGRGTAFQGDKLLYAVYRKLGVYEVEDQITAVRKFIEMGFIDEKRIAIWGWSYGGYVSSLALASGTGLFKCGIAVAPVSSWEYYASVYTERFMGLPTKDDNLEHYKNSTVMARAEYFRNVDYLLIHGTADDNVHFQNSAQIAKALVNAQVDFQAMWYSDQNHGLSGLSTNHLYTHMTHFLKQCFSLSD
As to the kind of experiment: Enzymatic activity of purified FAP, chromogenic substrate H-Ala-Pro-pNA. It counts as biochemical. The conditions noted are these: pH 7.4, 25° C., 10 min pre-incubation with enzyme. Here is the method: The enzymatic activity of purified FAP was measured at 25° C. on a Molecular Devices SPECTRAmax 340PC384 microtiter plate reader by monitoring the absorbance of H-Ala-Pro-pNA (Bachem) as the chromogenic substrate at 410 nm. […] Assays and their corresponding measurements were performed in duplicate. […] Inhibitor stock solutions (1 mM) were prepared in HCl solution (pH 2.0), and stored at −20° C. Stock solutions were diluted with 20 mM TRIS-HCl, KCl (20 mM) buffer at pH 7.4 immediately preceding the experiment according to the protocol.
Consider `CC(C)NCC(=O)N1CCCC1B(O)O` (stereo not shown) [Compound 15], for which the IC50 (commonly the midpoint of a concentration-inhibition curve) stood at 0.99 µM.

Consider `N#C[C@@H]1CCCN1C(=O)CNC(=O)c1ccccc1` [Compound 30], for which it took 2.2 µM to reach half-maximal inhibition (IC50).

Consider `O=C(NCC(=O)N1CCSC1)c1ccccc1` [Compound 31], for which it took 14 µM to reach half-maximal inhibition (IC50).

With `CC(C)[C@H](NC(=O)c1ccccc1)C(=O)N1CCC[C@H]1B(O)O` [Compound 32], half-maximal inhibition (IC50) required 30 µM.

In turn, `C[C@H](NC(=O)CNC(=O)c1cccc2ccccc12)B(O)O` [Compound 33] yielded a 50% inhibitory concentration (IC50) of 8.2 µM.

In turn, `CC[C@H](NC(=O)CNC(=O)c1cccc2ccccc12)B(O)O` [Compound 34] displayed an IC50 of 9 µM.

The same experiment, now with this note: pH 7.4, 25° C., 10 min pre-incubation; result in words.
Consider `CNCC(=O)N1CCCC1B(O)O` (stereo not shown) [Compound 12], for which the “IC50 FAP (pH 7.4)” value was “no inhib”.

With `CC(=O)N[C@H](C(=O)N[C@@H](C)B(O)O)C(C)C` [Compound 35], the “IC50 FAP (pH 7.4)” value is “no inhib”.

As for `CC[C@H](NC(=O)[C@@H](NC(C)=O)C(C)C)B(O)O` [Compound 36], the “IC50 FAP (pH 7.4)” value is recorded as “no inhib”.

For another experiment, the target named is DPP IV (Homo sapiens, UniProt P27487). The experiment is described as follows: DPP IV inhibition (Table 1). The experiment is classed as biochemical. The conditions noted are these: pH 8.0.
Chain of DPP IV (P27487 whole entry, species assumed): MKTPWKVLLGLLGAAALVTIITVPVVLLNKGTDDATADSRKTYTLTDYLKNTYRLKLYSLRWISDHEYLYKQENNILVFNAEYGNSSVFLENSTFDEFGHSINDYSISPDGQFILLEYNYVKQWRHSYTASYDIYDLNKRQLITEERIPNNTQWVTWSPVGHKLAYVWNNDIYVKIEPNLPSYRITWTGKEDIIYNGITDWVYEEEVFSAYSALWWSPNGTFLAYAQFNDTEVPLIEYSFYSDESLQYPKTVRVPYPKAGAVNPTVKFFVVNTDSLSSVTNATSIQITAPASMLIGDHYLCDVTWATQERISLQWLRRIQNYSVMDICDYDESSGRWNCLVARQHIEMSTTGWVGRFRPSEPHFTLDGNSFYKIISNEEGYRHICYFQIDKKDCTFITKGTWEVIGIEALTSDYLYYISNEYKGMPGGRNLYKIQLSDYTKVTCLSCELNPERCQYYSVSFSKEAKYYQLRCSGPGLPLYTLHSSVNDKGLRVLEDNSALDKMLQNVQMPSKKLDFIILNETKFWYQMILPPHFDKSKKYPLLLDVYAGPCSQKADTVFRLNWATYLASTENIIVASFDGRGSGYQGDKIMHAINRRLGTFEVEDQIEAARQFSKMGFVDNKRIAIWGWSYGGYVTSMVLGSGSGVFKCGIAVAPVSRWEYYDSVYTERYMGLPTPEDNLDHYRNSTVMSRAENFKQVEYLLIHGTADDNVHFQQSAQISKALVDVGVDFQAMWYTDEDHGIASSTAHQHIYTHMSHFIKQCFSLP
On to `NCC(=O)N1CCC[C@H]1B(O)O` [Compound 6], for which the IC50 was found to be 6.9 µM.

The compound `CNCC(=O)N1CCCC1B(O)O` (stereo not shown) [Compound 12] displayed an IC50 of 560 µM.

For `CCNCC(=O)N1CCCC1B(O)O` (stereo not shown) [Compound 13], the IC50 stood at 46 µM.

On to `CC(C)NCC(=O)N1CCCC1B(O)O` (stereo not shown) [Compound 15], for which the midpoint of inhibition, the IC50, lay at 0.9 µM.
